Calls of active or inactive are those of the source. How the calls were made is not given here.

This is an account of results in PubChem BioAssay AID1259407 (Chemical Carcinogenesis Research Information System (CCRIS), 2018).

The test system of this data set is CCRIS mutagenicity, Ames/micronucleus/aberration tests. The data set can be described thus: CCRIS mutagenicity studies.
[1] abbreviates: Test System: AMES SALMONELLA TYPHIMURIUM, Strain/Indicator: TA98, Metabolic Activation: NONE, Method: STANDARD PLATE.
Where [2] appears, read: Test System: AMES SALMONELLA TYPHIMURIUM, Strain/Indicator: TA100, Metabolic Activation: NONE, Method: STANDARD PLATE.
Setting [3] is: Test System: AMES SALMONELLA TYPHIMURIUM, Strain/Indicator: TA98, Metabolic Activation: RAT, LIVER, S-9, AROCLOR 1254, Method: STANDARD PLATE.
Setting [4] is: Test System: AMES SALMONELLA TYPHIMURIUM, Strain/Indicator: TA100, Metabolic Activation: RAT, LIVER, S-9, AROCLOR 1254, Method: STANDARD PLATE.

On to `O=C1C[C@@H]2NCCCNCCCCN(CCCN1)C(=O)[C@@H]1c3cc2ccc3O[C@H]1c1ccc(O)cc1`, for which the mutagenic call runs as follows: (Test System: AMES SALMONELLA TYPHIMURIUM, Strain/Indicator: TA97A, Metabolic Activation: NONE) “inactive; negative”; (Test System: AMES SALMONELLA TYPHIMURIUM, Strain/Indicator: TA97A, Metabolic Activation: RAT, LIVER, S-9) “inactive; negative”; (Test System: AMES SALMONELLA TYPHIMURIUM, Strain/Indicator: TA98, Metabolic Activation: NONE) “active; positive”; (Test System: AMES SALMONELLA TYPHIMURIUM, Strain/Indicator: TA98, Metabolic Activation: RAT, LIVER, S-9) “active; positive”; (Test System: AMES SALMONELLA TYPHIMURIUM, Strain/Indicator: TA100, Metabolic Activation: NONE) “active; positive”; (Test System: AMES SALMONELLA TYPHIMURIUM, Strain/Indicator: TA100, Metabolic Activation: RAT, LIVER, S-9) “active; positive”.
Consider `c1ccc(-c2ccncc2)nc1`, for which the mutagenic call by setting is: (Test System: AMES SALMONELLA TYPHIMURIUM, Strain/Indicator: TA97, Metabolic Activation: RAT, LIVER, S-9, PHENOBARBITAL, Method: STANDARD PLATE) “inactive; negative”; (Test System: AMES SALMONELLA TYPHIMURIUM, Strain/Indicator: TA98, Metabolic Activation: RAT, LIVER, S-9, PHENOBARBITAL, Method: STANDARD PLATE) “active; positive”; (Test System: AMES SALMONELLA TYPHIMURIUM, Strain/Indicator: TA100, Metabolic Activation: RAT, LIVER, S-9, PHENOBARBITAL, Method: STANDARD PLATE) “inactive; negative”; (Test System: AMES SALMONELLA TYPHIMURIUM, Strain/Indicator: TA1535, Metabolic Activation: RAT, LIVER, S-9, PHENOBARBITAL, Method: STANDARD PLATE) “inactive; negative”; (Test System: AMES SALMONELLA TYPHIMURIUM, Strain/Indicator: TA1537, Metabolic Activation: RAT, LIVER, S-9, PHENOBARBITAL, Method: STANDARD PLATE) “active; positive”; (Test System: AMES SALMONELLA TYPHIMURIUM, Strain/Indicator: TA1538, Metabolic Activation: RAT, LIVER, S-9, PHENOBARBITAL, Method: STANDARD PLATE) “inactive; negative”.
`CCc1cccc2c(CCO)c[nH]c12`: the mutagenic call by setting is: under setting [1], “inactive; negative”; (Test System: AMES SALMONELLA TYPHIMURIUM, Strain/Indicator: TA98, Metabolic Activation: RAT, LIVER, S-9, Method: STANDARD PLATE) “inactive; negative”; under setting [2], “inactive; negative”; (Test System: AMES SALMONELLA TYPHIMURIUM, Strain/Indicator: TA100, Metabolic Activation: RAT, LIVER, S-9, Method: STANDARD PLATE) “inactive; negative”; (Test System: AMES SALMONELLA TYPHIMURIUM, Strain/Indicator: TA1535, Metabolic Activation: NONE, Method: STANDARD PLATE) “inactive; negative”; (Test System: AMES SALMONELLA TYPHIMURIUM, Strain/Indicator: TA1535, Metabolic Activation: RAT, LIVER, S-9, Method: STANDARD PLATE) “inactive; negative”. In addition, the mutagenic call runs as follows: (Test System: AMES SALMONELLA TYPHIMURIUM, Strain/Indicator: TA1537, Metabolic Activation: NONE, Method: STANDARD PLATE) “inactive; negative”; (Test System: AMES SALMONELLA TYPHIMURIUM, Strain/Indicator: TA1537, Metabolic Activation: RAT, LIVER, S-9, Method: STANDARD PLATE) “inactive; negative”; (Test System: E. COLI, Strain/Indicator: WP2 UVRA, Metabolic Activation: NONE, Method: STANDARD PLATE) “inactive; negative”; (Test System: E. COLI, Strain/Indicator: WP2 UVRA, Metabolic Activation: RAT, LIVER, S-9, Method: STANDARD PLATE) “inactive; negative”.
Regarding `Cc1c2ccccc2c(CBr)c2c1ccc1ccccc12`, the mutagenic call under setting [1] is “active; positive” and the mutagenic call under setting [2] was “active; positive”.
In the case of `C=C(C)C(=O)OCCC`, the mutagenic call was “inactive; negative” (Test System: AMES SALMONELLA TYPHIMURIUM, Strain/Indicator: TA98, Metabolic Activation: HAMSTER, LIVER, S-9, AROCLOR 1254 (10%), Method: PREINCUBATION); “inactive; negative” (Test System: AMES SALMONELLA TYPHIMURIUM, Strain/Indicator: TA98, Metabolic Activation: NONE, Method: PREINCUBATION); “inactive; negative” (Test System: AMES SALMONELLA TYPHIMURIUM, Strain/Indicator: TA98, Metabolic Activation: RAT, LIVER, S-9, AROCLOR 1254 (10%), Method: PREINCUBATION); “inactive; negative” (Test System: AMES SALMONELLA TYPHIMURIUM, Strain/Indicator: TA100, Metabolic Activation: HAMSTER, LIVER, S-9, AROCLOR 1254 (10%), Method: PREINCUBATION); “inactive; negative” (Test System: AMES SALMONELLA TYPHIMURIUM, Strain/Indicator: TA100, Metabolic Activation: NONE, Method: PREINCUBATION); “inactive; negative” (Test System: AMES SALMONELLA TYPHIMURIUM, Strain/Indicator: TA100, Metabolic Activation: RAT, LIVER, S-9, AROCLOR 1254 (10%), Method: PREINCUBATION). The mutagenic call (Test System: AMES SALMONELLA TYPHIMURIUM, Strain/Indicator: TA1535, Metabolic Activation: HAMSTER, LIVER, S-9, AROCLOR 1254 (10%), Method: PREINCUBATION) was “inactive; negative”; the mutagenic call (Test System: AMES SALMONELLA TYPHIMURIUM, Strain/Indicator: TA1535, Metabolic Activation: NONE, Method: PREINCUBATION) was “inactive; negative”; the mutagenic call (Test System: AMES SALMONELLA TYPHIMURIUM, Strain/Indicator: TA1535, Metabolic Activation: RAT, LIVER, S-9, AROCLOR 1254 (10%), Method: PREINCUBATION) is “inactive; negative”; the mutagenic call (Test System: AMES SALMONELLA TYPHIMURIUM, Strain/Indicator: TA1537, Metabolic Activation: HAMSTER, LIVER, S-9, AROCLOR 1254 (10%), Method: PREINCUBATION) is “inactive; negative”; the mutagenic call (Test System: AMES SALMONELLA TYPHIMURIUM, Strain/Indicator: TA1537, Metabolic Activation: NONE, Method: PREINCUBATION) is “inactive; negative”; the mutagenic call (Test System: AMES SALMONELLA TYPHIMURIUM, Strain/Indicator: TA1537, Metabolic Activation: RAT, LIVER, S-9, AROCLOR 1254 (10%), Method: PREINCUBATION) was “inactive; negative”.
In the case of `CCCN(CCCO)N=O`, the mutagenic call (Test System: CHINESE HAMSTER V-79, Strain/Indicator: V-79/OUABAIN, Metabolic Activation: HAMSTER, HEPATOCYTES, Method: CELL-MEDIATED) was “inactive; negative”.
Turning to `O[C@@H]1c2ccccc2-c2ccc3ccccc3c2[C@H]1O`, the mutagenic call is “inactive; negative” under setting [1], “inactive; negative” under setting [3], “inactive; negative” under setting [2] and “inactive; negative” under setting [4].
`CC1(C)CC[C@]2(C(=O)O)CC[C@]3(C)C(=CC[C@@H]4[C@@]5(C)C[C@H](O)[C@H](O)[C@@](C)(C(=O)O)[C@@H]5CC[C@]43C)[C@@H]2C1`: the mutagenic call (Test System: AMES SALMONELLA TYPHIMURIUM, Strain/Indicator: TA97, Metabolic Activation: NONE, Method: STANDARD PLATE) was “inactive; negative”; the mutagenic call (Test System: AMES SALMONELLA TYPHIMURIUM, Strain/Indicator: TA97, Metabolic Activation: RAT, LIVER, S-9, AROCLOR 1254, Method: STANDARD PLATE) was “inactive; negative”; the mutagenic call under setting [1] is “inactive; negative”; the mutagenic call under setting [3] was “inactive; negative”; the mutagenic call under setting [2] is “inactive; negative”; the mutagenic call under setting [4] was “inactive; negative”. In addition, the mutagenic call is, setting by setting: (Test System: AMES SALMONELLA TYPHIMURIUM, Strain/Indicator: TA102, Metabolic Activation: NONE, Method: STANDARD PLATE) “inactive; negative”; (Test System: AMES SALMONELLA TYPHIMURIUM, Strain/Indicator: TA102, Metabolic Activation: RAT, LIVER, S-9, AROCLOR 1254, Method: STANDARD PLATE) “inactive; negative”.
